What all share (assay type): cell-based
The test system of experiment [1] is Pseudomonas aeruginosa. Briefly: Growth of Pseudomonas aeruginosa in the presence of furanones, alone or with a cell-permeabilising agent. As to conditions: for prevention of growth of P. aeruginosa (ranking): furanone 10 μg/ml with EDTA 0.02%. The procedure:
Ten furanones (compounds 2, 3, 19, 30, 45, 55, 56, 24/25, 26/27 and 33/34) (see Table 2) were tested against growth of Gram negative bacteria in a combination treatment using a cell permeabilising agent (Polymyxin B and EDTA).
Different furanone compounds under test were applied at 10 μg/ml (concentration of stock solution of furanone compound or mixture of compounds was 2 mg/ml) and polymyxin B was employed at concentrations which ranged from 0.3-1 μg/ml (stock solution was 10 mg/ml).
In addition, EDTA which also affects the permeability of the cell membrane was tested against growth of P. aeruginosa in combination with the different furanones. EDTA was added at a concentration of 0.02%. […] It is possible that they differently allow for different furanones to penetrate the cell membrane.
Growth of Pseudomonas aeruginosa in the presence of citric acid, toluene, Tween 80 and two different quaternary ammonium compounds was further investigated. The tested furanones was furanone 30 and 34 at 10 μg/ml (concentration of stock solution of furanone compound was 10 mg/ml). The used cell-permeability agents were employed at concentrations which ranged from 0.35-0.001%.

In experiment [2] the test system is Escherichia coli. Briefly: Growth of Escherichia coli in the presence of polymyxin B and furanones. The following applies: furanone 10 μg/ml with polymyxin B 0.3-1 μg/ml. The procedure: Growth of Gram negative bacteria is not generally affected by furanone compounds alone. […] In order to explore this concept, the antibiotic polymyxin B was included in the initial round of experiments (see FIGS. 2, 3 and 4) involving the bacteria Escherichia coli, Burkholdera cepacia and Pseudomonas aeruginosa. […] Different furanone compounds under test were applied at 10 μg/ml (concentration of stock solution of furanone compound or mixture of compounds was 2 mg/ml) and polymyxin B was employed at concentrations which ranged from 0.3-1 μg/ml (stock solution was 10 mg/ml).

For experiment [3], the system named is Candida albicans. Description: Growth of Candida albicans in the presence of furanone 57 with or without EDTA. Here is the method: The yeast, Candida albicans, was tested in the presence of furanone 57 at 250 ng/ml. […] In combination with 0.01% EDTA the growth of the cells was inhibited for at least 32 hrs.
The subject of experiment [4] is Corynebacterium jeikeium. Description: Growth of Corynebacterium jeikeium in the presence of furanone 2 and EDTA. The following applies: compound 100 μg/ml in combination with EDTA 0.02%. The procedure:
Moreover, the growth of the Gram-positive bacteria, Corynebacterium jeikeium, was inhibited by compound 2 (100 μg/ml) in combination with EDTA (0.02%). The lagphase of growth was prolonged for 20 hr.

[5] abbreviates: furanone 10 μg/ml in combination with citric acid.

On to `O=C1C=C/C(=C/Br)O1` [Compound 56], for which, in experiment [1], the “prevention of growth of P. aeruginosa (ranking)” value is on record as “most effective compounds in preventing growth”.
For `CCCC(F)C1=C(Br)/C(=C/Br)OC1=O` (centres unmarked) [Compound 45], the “time period of inhibition of growth of E. coli” value in experiment [2] was 8 h.
Take `CCCCCC(Br)C1=CC(=C(Br)Br)OC1=O` (centres unmarked) [Compound 34]: the “prolongation of lag phase of growth of P. aeruginosa” value in experiment [1] (setting [5]) was “approximately 3 hours”.
For `CCCCCC(F)C1=C(Br)/C(=C/Br)OC1=O` (centres unmarked) [Compound 57], the “duration of inhibition of growth of C. albicans cells” value is 24 h in experiment [3] (compound 250 ng/ml alone) and “at least 32 hrs” in experiment [3] (compound 250 ng/ml in combination with 0.01% EDTA).
Regarding `O=C1C=C(Br)/C(=C/Br)O1` [Compound 30], the “prolongation of lag phase of growth of P. aeruginosa (in words)” value in experiment [1] (setting [5]) is given as “also prolonged the lag phase of growth however not as strongly as compound 34”. The “prevention of growth of P. aeruginosa (ranking)” value in experiment [1] is reported as “most effective compounds in preventing growth”. Moreover, the “growth of P. aeruginosa” value in experiment [1] (furanone 10 μg/ml with Tween 80) is recorded as “slight growth inhibition”; in experiment [1] (furanone 10 μg/ml with didecyldimethylammonium bromide), “inhibited the growth of P. aeruginosa”; in experiment [1] (furanone 10 μg/ml with tetrabutylammoniumhydrogen sulfate (slightly more active of the two quaternary ammonium compounds)) it was “inhibited the growth of P. aeruginosa”. Besides, in experiment [1] (furanone 10 μg/ml with polymyxin B 0.3-1 μg/ml), the “activity against P. aeruginosa (ranking)” value is reported as “most active compound”.
Regarding `CCCCC1=C(Br)C(=C(Br)Br)OC1=O` [Compound 2], the “time period of inhibition of growth of E. coli” value in experiment [2] was 8 h. In experiment [4], the “growth of Corynebacterium jeikeium” value is listed as “inhibited” and the “prolongation of lag phase of growth of Corynebacterium jeikeium” value came to 20 h.
